Among the data in paper PMC7127027 (Bioorganic & Medicinal Chemistry Letters, 2017) are cell death ratio values, retold here.

The test system of this series is Hela cells RCB 0007. The settings on record: human.

For the molecule `O=C(/C=C/c1ccccc1)N[C@@H](c1ccccc1)[C@@H](OC(=O)c1ccccc1)C(=O)NC1CCCCC1` [Compound 4, (2R,3S)-Cyclohexyl 3-(N-cinnamoyl)amino-3-phenyl-2-benzoyloxypropanamide], the cell death ratio entry is listed as “less than 10%”.
